Results as given in patent EP2951180B1, “2,6,7,8 SUBSTITUTED PURINES AS HDM2 INHIBITORS” (Merck Sharp & Dohme Corp., priority 2013, dated 2014).

Target: T1, HDM2 (Homo sapiens, UniProt Q00987)
T1 construct: Thioredoxin (N); made in house; host or cells: E. coli strain BL21(DE3)Rosetta
Assay: HDM2 FRET assay (inhibition of binding of FITC labeled p53-pocket peptide to HDM2)
Conditions: Table 10; read-out: FRET IC50
Procedure, shortened: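 TR-FRET with 0.5 nM His-tagged recombinant HDM2, 3 nM FITC-labelled p53 peptide and 0.25 nM Tb-anti-His antibody in PBS, 0.01% BSA, 0.01% Tween-20, 0.1% DMSO. IC50 from em520/em495 ratio over 10-point dilutions, 4-parameter logistic fit.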

T1 sequence (Q00987 17-125): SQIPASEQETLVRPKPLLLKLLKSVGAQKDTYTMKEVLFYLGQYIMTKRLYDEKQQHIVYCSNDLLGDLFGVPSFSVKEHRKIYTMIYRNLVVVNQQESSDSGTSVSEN

Compared with `C[C@@H](Nc1nc(C(=O)O)nc2nc(COc3ccccc3)n(Cc3ccc(C(F)(F)F)cc3)c12)C1CCC1` [Example 10.1, (R)-6-((1-cyclobutylethyl)amino)-8-(phenoxymethyl)-7-(4-(trifluoromethyl)benzyl)-7H-purine-2-carboxylic acid], `C[C@@H](Nc1nc(C(=O)O)nc2nc(COCc3ccccc3)n(Cc3ccc(C(F)(F)F)cc3)c12)C1CCC1` [Example 10.2, (R)-8-((benzyloxy)methyl)-6-((1-cyclobutylethyl)amino)-7-(4-(trifluoromethyl)benzyl)-7H-purine-2-carboxylic acid] is 1.7-fold lower in IC50: 37.5 nM for the first, 21.6 nM for the second.

Going from `CC(C)CC(=O)N(C)c1nc2nc(C(=O)O)nc(N[C@H](C)C3CCC3)c2n1Cc1ccc(C(F)(F)F)cc1` [Example 10.3, (R)-6-((1-cyclobutylethyl)amino)-8-(N,3-dimethylbutanamido)-7-(4-(trifluoromethyl)benzyl)-7H-purine-2-carboxylic acid] to `CC(C)CNC(=O)c1nc2nc(C(=O)O)nc(N[C@H](C)C3CCC3)c2n1Cc1ccc(C(F)(F)F)cc1` [Example 10.16, (R)-6-((1-Cyclobutylethyl)amino)-8-(isobutylcarbamoyl)-7-(4-(trifluoromethyl)benzyl)-7H-purine-2-carboxylic acid], the IC50 falls from 69.8 nM to 37 nM (1.9-fold). The second is the more potent here.

Compared with `C[C@@H](Nc1nc(C(=O)O)nc2nc(N(C)C(=O)C3CCCCC3)n(Cc3ccc(C(F)(F)F)cc3)c12)C1CCC1` [Example 10.4, (R)-6-((1-cyclobutylethyl)amino)-8-(N-methylcyclohexanecarboxamido)-7-(4-(trifluoromethyl)benzyl)-7H-purine-2-carboxylic acid], `C[C@@H](Nc1nc(C(=O)O)nc2nc(CN(C)C3CCCCC3)n(Cc3ccc(C(F)(F)F)cc3)c12)C1CCC1` [Example 10.14, (R)-6-((1-cyclobutylethyl)amino)-8-((cyclohexyl(methyl)amino)methyl)-7-(4-(trifluoromethyl)benzyl)-7H-purine-2-carboxylic acid] is 3.1-fold lower in IC50: 14.1 nM for the first, 4.53 nM for the second. The second is the more potent here.

Compared with `CC(C)COC(C)c1nc2nc(C(=O)O)nc(N[C@H](C)C3CCC3)c2n1Cc1ccc(C(F)(F)F)cc1` (stereo partly drawn) [Example 10.5, 6-(((R)-1-cyclobutylethyl)amino)-8-(1-isobutoxyethyl)-7-(4-(trifluoromethyl)benzyl)-7H-purine-2-carboxylic acid], `CC(C)CN(C)C(C)c1nc2nc(C(=O)O)nc(N[C@H](C)C3CCC3)c2n1Cc1ccc(C(F)(F)F)cc1` (stereo partly drawn) [Example 10.9, 6-(((R)-1-cyclobutylethyl)amino)-8-(1-(isobutyl(methyl)amino)ethyl)-7-(4-(trifluoromethyl)benzyl)-7H-purine-2-carboxylic acid] is 1.9-fold lower in IC50: 39.4 nM for the first, 21.2 nM for the second. The second is the more potent here.

Going from `CC(O)c1nc2nc(C(=O)O)nc(N[C@H](C)C3CCC3)c2n1Cc1ccc(C(F)(F)F)cc1` (stereo partly drawn) [Example 10.7, 6-(((R)-1-Cyclobutylethyl)amino)-8-(1-hydroxyethyl)-7-(4-(trifluoromethyl)benzyl)-7H-purine-2-carboxylic acid] to `CC(Oc1ccccc1)c1nc2nc(C(=O)O)nc(N[C@H](C)C3CCC3)c2n1Cc1ccc(C(F)(F)F)cc1` (stereo partly drawn) [Example 10.8, 6-(((R)-1-Cyclobutylethyl)amino)-8-(1-phenoxyethyl)-7-(4-(trifluoromethyl)benzyl)-7H-purine-2-carboxylic acid], the IC50 falls from 140 nM to 28.9 nM (4.8-fold).

First: CC(c1nc2nc(C(=O)O)nc(N[C@H](C)C3CCC3)c2n1Cc1ccc(C(F)(F)F)cc1)N(C)c1ccccc1 (stereo partly drawn) [Example 10.10, 6-(((R)-1-cyclobutylethyl)amino)-8-(1-(methyl(phenyl)amino)ethyl)-7-(4-(trifluoromethyl)benzyl)-7H-purine-2-carboxylic acid]
Second: CC(c1nc2nc(C(=O)O)nc(N[C@H](C)C3CCC3)c2n1Cc1ccc(C(F)(F)F)cc1)N(C)Cc1ccccc1 (stereo partly drawn) [Example 10.12, 8-(1-(benzyl(methyl)amino)ethyl)-6-(((R)-1-cyclobutylethyl)amino)-7-(4-(trifluoromethyl)benzyl)-7H-purine-2-carboxylic acid]
The IC50 of the first is 2-fold lower: 68.8 nM for the first, 139 nM for the second. The first is the more potent here.

First: CC(c1nc2nc(C(=O)O)nc(N[C@H](C)C3CCC3)c2n1Cc1ccc(C(F)(F)F)cc1)N(C)C1CCCCC1 (stereo partly drawn) [Example 10.11, 6-(((R)-1-cyclobutylethyl)amino)-8-(1-(cyclohexyl(methyl)amino)ethyl)-7-(4-(trifluoromethyl)benzyl)-7H-purine-2-carboxylic acid]
Second: C[C@@H](Nc1nc(C(=O)O)nc2nc(C(=O)NC3CCCCC3)n(Cc3ccc(C(F)(F)F)cc3)c12)C1CCC1 [Example 10.19, (R)-6-((1-Cyclobutylethyl)amino)-8-(cyclohexylcarbamoyl)-7-(4-(trifluoromethyl)benzyl)-7H-purine-2-carboxylic acid]
The IC50 of the first is 3.1-fold lower: 22.1 nM for the first, 68 nM for the second. The first is the more potent here.

`C[C@@H](Nc1nc(C(=O)O)nc2nc(CN(C)Cc3ccccc3)n(Cc3ccc(C(F)(F)F)cc3)c12)C1CCC1` [Example 10.13, (R)-8-((benzyl(methyl)amino)methyl)-6-((1-cyclobutylethyl)amino)-7-(4-(trifluoromethyl)benzyl)-7H-purine-2-carboxylic acid] and `C[C@@H](Nc1nc(C(=O)O)nc2nc(C(=O)NCc3ccccc3)n(Cc3ccc(C(F)(F)F)cc3)c12)C1CCC1` [Example 10.18, (R)-8-(Benzylcarbamoyl)-6-((1-cyclobutylethyl)amino)-7-(4-(trifluoromethyl)benzyl)-7H-purine-2-carboxylic acid] are within 1.5-fold of each other in IC50: 47.7 nM for the first, 58.9 nM for the second.

`C[C@@H](Nc1nc(C(=O)O)nc2nc(C(=O)N[C@@H](CO)c3ccccc3)n(Cc3ccc(C(F)(F)F)cc3)c12)C1CCC1` [Example 10.15, 6-(((R)-1-cyclobutylethyl)amino)-8-(((R)-2-hydroxy-1-phenylethyl)carbamoyl)-7-(4-(trifluoromethyl)benzyl)-7H-purine-2-carboxylic acid] and `C[C@@H](Nc1nc(C(=O)O)nc2nc(C(=O)Nc3ccccc3)n(Cc3ccc(C(F)(F)F)cc3)c12)C1CCC1` [Example 10.20, (R)-6-((1-Cyclobutylethyl)amino)-8-(phenylcarbamoyl)-7-(4-(trifluoromethyl)benzyl)-7H-purine-2-carboxylic acid] are within 1.5-fold of each other in IC50: 202 nM for the first, 189 nM for the second.

Going from `C[C@@H](Nc1nc(C(=O)O)nc2nc(C(=O)NCC3CC3)n(Cc3ccc(C(F)(F)F)cc3)c12)C1CCC1` [Example 10.17, (R)-6-((1-Cyclobutylethyl)amino)-8-((cyclopropylmethyl)carbamoyl)-7-(4-(trifluoromethyl)benzyl)-7H-purine-2-carboxylic acid] to `C[C@@H](Nc1nc(C(=O)O)nc2nc(C(=O)N3CCCC(C)(C)C3)n(Cc3ccc(C(F)(F)F)cc3)c12)C1CCC1` [Example 10.21, (R)-6-((1-Cyclobutylethyl)amino)-8-(3,3-dimethylpiperidine-1-carbonyl)-7-(4-(trifluoromethyl)benzyl)-7H-purine-2-carboxylic acid], the IC50 falls from 67.7 nM to 22.3 nM (3-fold).

`C[C@@H](Nc1nc(C(=O)O)nc2nc(C3=N[C@H](c4ccccc4)CO3)n(Cc3ccc(C(F)(F)F)cc3)c12)C1CCC1` [Example 10.22, 6-(((R)-1-Cyclobutylethyl)amino)-8-((R)-4-phenyl-4,5-dihydrooxazol-2-yl)-7-(4-(trifluoromethyl)benzyl)-7H-purine-2-carboxylic acid] gave an IC50 of 28.4 nM.
